{"source": "patent US4168316A", "about": "“Immunosuppressive-1-(thiocarbamoyl)-2-imidazolidinone” (Northwestern University, priority 1978, dated 1979)", "key": {"[1]": {"tested_on": "DNFB-induced ear swelling", "assay": "ear swelling assay, delayed-type contact sensitivity to 2,4-dinitro-1-fluorobenzene (DNFB)", "type": "in vivo, inbred mice (C57BL/6J; (C57BL/6J×DBA/2J) F1)", "source_text": "In further proof of the activity of the purified material from Example 3 as compared with niridazole per se, there was employed the ear swelling assay of Phanuphak et al. (1), which measures delayed-type contact sensitivity of inbred mice to 2,4-dinitro-1-fluorobenzene (DNFB). The assay was done according to the following protocol: on Day 1, groups of mice, matched for sex and weight, had their abdomens shaved and received varying doses of niridazole or NIF, the purified product of Example 2. The animals were sensitized on Day 3 with 20 μl of 0.5% (v/v) DNFB in acetone: olive oil (4:1, v/v) applied to the shaved abdomen. The sensitization procedure was repeated on Day 4. On Day 8, mice were lightly anesthetized with ether and the right ear thickness measured (10^-2 ×mm) by a modified dial thickness gauge. The right ear was then challenged with 10 μl of 0.5% DNFB solution. Twenty-four hours later, the mice were again anesthetized and the thickness of the right ear was measured to determine the immune response (swelling to the DNFB challenge)."}, "[2]": {"tested_on": "delayed hypersensitivity-type reactions", "details": "cited from earlier work"}, "[3]": {"tested_on": "granuloma formation around S. mansoni eggs", "assay": "granuloma formation around S. mansoni eggs injected intravenously into the pulmonary microvasculature", "type": "in vivo, CF1 Swiss albino female mice", "details": "niridazole single oral dose 1 mg/kg, Day -1, p<0.005", "experimental": "Groups of 5 weanling CF1 Swiss albino female mice (18-22 g body weight) obtained from Carworth Farms, Inc., New City, New York were treated by intravenous injection with different doses of urine fractions at varying time intervals before egg injection. Untreated mice and niridazole treated animals (1 mg/kg body weight given orally on the day before egg injection) were used as controls. […] Fifty granulomas containing eggs in their centers were measured from each experimental group and the significance of the difference was evaluated by the Student's t test."}, "[4]": {"tested_on": "inflammation related to delayed hypersensitivity", "details": "tests on experimental animals; cited from earlier work"}}}
{"smiles": "NC(=S)N1CCNC1=O", "note": "[NIF, 1-(thiocarbamoyl)-2-imidazolidinone]", "values": [{"measurement": "suppression of ear swelling", "setting": "[1]; 10^-8 -10^-10 g/kg pure (NIF) urine extracts", "value": 50, "unit": "%"}, {"measurement": "SUPPRESSION", "setting": "[1]; Exp. II, F1 mice, 1.2 × 10^-8 g/kg ip", "value": "48 ± 7", "unit": "%"}, {"measurement": "EAR SWELLING (± SEM)", "setting": "[1]; Exp. II, F1 mice, 1.2 × 10^-8 g/kg ip, n=5, control 30.9", "value": "16.0 ± 2.2 10^-2 × mm"}, {"measurement": "SUPPRESSION", "setting": "[1]; Exp. II, F1 mice, 1.2 × 10^-10 g/kg ip", "value": "46 ± 4", "unit": "%"}, {"measurement": "EAR SWELLING (± SEM)", "setting": "[1]; Exp. II, F1 mice, 1.2 × 10^-10 g/kg ip, n=5, control 30.9", "value": "16.8 ± 1.2 10^-2 × mm"}, {"measurement": "SUPPRESSION", "setting": "[1]; Exp. III, B6 mice, 1.6 × 10^-8 g/kg ip", "value": "52 ± 14", "unit": "%"}, {"measurement": "EAR SWELLING (± SEM)", "setting": "[1]; Exp. III, B6 mice, 1.6 × 10^-8 g/kg ip, n=4, control 36.2", "value": "17.5 ± 5.0 10^-2 × mm"}, {"measurement": "SUPPRESSION", "setting": "[1]; Exp. III, B6 mice, 1.6 × 10^-8 g/kg iv", "value": "25 ± 21", "unit": "%"}, {"measurement": "EAR SWELLING (± SEM)", "setting": "[1]; Exp. III, B6 mice, 1.6 × 10^-8 g/kg iv, n=4, control 36.2", "value": "27.2 ± 7.7 10^-2 × mm"}, {"measurement": "SUPPRESSION", "setting": "[1]; Exp. III, B6 mice, 1.6 × 10^-10 g/kg ip", "value": "69 ± 13", "unit": "%"}, {"measurement": "EAR SWELLING (± SEM)", "setting": "[1]; Exp. III, B6 mice, 1.6 × 10^-10 g/kg ip, n=4, control 36.2", "value": "11.4 ± 4.8 10^-2 × mm"}, {"measurement": "SUPPRESSION", "setting": "[1]; Exp. III, B6 mice, 1.6 × 10^-10 g/kg iv", "value": "45 ± 12", "unit": "%"}, {"measurement": "EAR SWELLING (± SEM)", "setting": "[1]; Exp. III, B6 mice, 1.6 × 10^-10 g/kg iv, n=4, control 36.2", "value": "20.0 ± 4.3 10^-2 × mm"}, {"measurement": "SUPPRESSION", "setting": "[1]; Exp. III, B6 mice, 1.6 × 10^-11 g/kg iv", "value": "65 ± 9", "unit": "%"}, {"measurement": "EAR SWELLING (± SEM)", "setting": "[1]; Exp. III, B6 mice, 1.6 × 10^-11 g/kg iv, n=4, control 36.2", "value": "12.8 ± 3.2 10^-2 × mm"}, {"measurement": "SUPPRESSION", "setting": "[1]; Exp. III, B6 mice, 1.6 × 10^-12 g/kg iv", "value": "88 ± 9", "unit": "%"}, {"measurement": "EAR SWELLING (± SEM)", "setting": "[1]; Exp. III, B6 mice, 1.6 × 10^-12 g/kg iv, n=4, control 36.2", "value": "4.4 ± 3.2 10^-2 × mm"}, {"measurement": "ear swelling, in words", "setting": "[1]; experiment III, extract dose 10^-12 g/kg", "value": "all but ablated"}, {"measurement": "suppression at higher doses, in words", "setting": "[1]; extract 10^-8 g/kg i.v.", "value": "less suppression"}]}
{"smiles": "O=C1NCCN1c1ncc([N+](=O)[O-])s1", "note": "[niridazole, 1-(5-nitro-2-thiazolyl)-2-imidazolidinone, reference compound]", "values": [{"measurement": "suppression of delayed hypersensitivity-type reactions, in words", "setting": "[2]; human studies by Webster et al", "value": "corroborated the suppression of delayed hypersensitivity-type reactions"}, {"measurement": "effect on inflammations, in words", "setting": "[2]; patients undergoing prolonged treatment, Mahmoud et al", "value": "suppressed inflammations"}, {"measurement": "suppression of ear swelling, in words", "setting": "[1]; 10^-3 to 10^-4 g/kg niridazole intraperitoneally", "value": "Significant suppression of ear swelling"}, {"measurement": "SUPPRESSION", "setting": "[1]; Exp. I, F1 mice, niridazole dose 10^-2, ip", "value": "37 ± 3", "unit": "%"}, {"measurement": "EAR SWELLING (± SEM)", "setting": "[1]; Exp. I, F1 mice, niridazole dose 10^-2, ip, n=5, control 26.9", "value": "17.0 ± 0.9 10^-2 × mm"}, {"measurement": "SUPPRESSION", "setting": "[1]; Exp. I, F1 mice, niridazole dose 10^-3, ip", "value": "66 ± 4", "unit": "%"}, {"measurement": "EAR SWELLING (± SEM)", "setting": "[1]; Exp. I, F1 mice, niridazole dose 10^-3, ip, n=5, control 26.9", "value": "9.1 ± 1.2 10^-2 × mm"}, {"measurement": "suppression at higher doses, in words", "setting": "[1]; niridazole 10 mg/kg", "value": "less suppression"}, {"measurement": "mean granuloma area", "setting": "[3]; Table III experiment", "value": "11 ± 2.6", "unit": "μ^2 × 10^3"}, {"measurement": "mean granuloma area", "setting": "[3]; Table IV experiment", "value": "8 ± 2.6", "unit": "μ^2 × 10^3"}, {"measurement": "effect on inflammation related to delayed hypersensitivity, in words", "setting": "[4]", "value": "suppression of inflammation related to delayed hypersensitivity including retardation of allograft rejection"}]}
